# Measured values from ChEMBL document CHEMBL4402562, “Discovery of Novel Peptidomimetic Boronate ClpP Inhibitors with Noncanonical Enzyme Mechanism as Potent Virulence Blockers in Vitro and in Vivo” (J Med Chem, 2020).
# Active and inactive are the calls of the source. No cut-off for these calls is given here.
# System: Staphylococcus aureus
# Test: Inhibition of Hla expression in methicillin-resistant Staphylococcus aureus ATCC 33591 at 16 uM by Western blot analysis
# Assay type: functional, organism-based
smiles,measurement,value
CC(C)C[C@H](NC(=O)[C@H](Cc1c[nH]c2ccccc12)NC(=O)c1cc(Cl)ccc1Cl)B(O)O,inhibition,Active
